This data set is described as follows: Hygroscopicity of the crystal form. The class given is physicochemical. Conditions: unless maintained at about 0% relative humidity the form comprises greater than 0.5 molecules of water per molecule of lopinavir. From the text: The Type I hydrated crystal form of lopinavir comprising about 0.5 molecules of water per molecule of lopinavir is hygroscopic. Therefore, unless maintained under conditions of about 0% relative humidity, the Type I hydrated crystal form of lopinavir comprises greater than 0.5 molecules of water per molecule of lopinavir. If a Type I hydrated crystal form of lopinavir is dehydrated to below about 0.5 molecules of water per molecule of lopinavir, amorphous lopinavir is obtained.
The Type I crystal form of lopinavir comprising about 0.5 molecules of water per molecule of lopinavir has the powder X-ray diffraction pattern which appears in FIG. 1. The Type I crystal form of lopinavir comprising about 0.5 molecules of water per molecule of lopinavir has the solid state ^13C nuclear magnetic resonance spectrum, FT near infrared spectrum and FT mid infrared spectrum which appear in FIGS. 2, 3 and 4, respectively. The sample from which the infrared and nuclear magnetic resonance spectra were obtained may contain somewhat more than 0.5 molecules of water per molecule of lopinavir due to the hygroscopicity of the crystal form when the level of hydration is about 0.5 molecules of water per molecule of lopinavir.

Molecules are shown by their SMILES.

Turning to `Cc1cccc(C)c1OCC(=O)N[C@@H](Cc1ccccc1)[C@@H](O)C[C@H](Cc1ccccc1)NC(=O)[C@H](C(C)C)N1CCCNC1=O`, the hygroscopicity entry is listed as “hygroscopic”.

(Values after patent US8058433B2, “Crystalline pharmaceutical” (Abbott Laboratories, priority 2000, dated 2011).)
